X-ray crystallography data for 1 compound are collected here from article doi:10.1101/155374v1, “A trapped double bond-photoisomerization intermediate in a bacterial photoreceptor” (biorxiv, 2017).

The experiment concerns the target T1, Slr1393g3 (GAF3 domain of cyanobacteriochrome Slr1393) (Synechocystis sp. PCC 6803, UniProt P73184).
T1 construct: isolated GAF3 domain, residues 441-596 modelled (155 amino acids stated), N-terminal His tag (tag residues seen at both ends), expressed in E. coli; one monomer per ASU, dimer in solution for Pr state
T1 sequence (P73184 441-596): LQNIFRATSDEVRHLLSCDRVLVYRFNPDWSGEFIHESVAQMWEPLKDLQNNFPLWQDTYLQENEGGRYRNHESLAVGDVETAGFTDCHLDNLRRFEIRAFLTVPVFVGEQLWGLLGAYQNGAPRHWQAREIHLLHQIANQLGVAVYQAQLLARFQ
Briefly: X-ray crystallography. The experiment is classed as binding. The settings on record: covalent; thioether bond of Cys528 to C3(1) of PCB; 5DFY in vitro assembled Pr 1.6 A; 5DFX in vivo Pr 1.8 A; 5M82 Pg (15-E) 1.86 A; 5M85 X-ray induced intermediate 2.1 A.

On to `C/C=C1/C(=C/c2[nH]c(/C=C3N=C(/C=C4\NC(=O)C(CC)=C4C)C(C)=C\3CCC(=O)O)c(CCC(=O)O)c2C)NC(=O)[C@@H]1C` [PCB, phycocyanobilin], for which the X-ray crystallography result was “The PCB chromophore is covalently bound to Cys528 on helix a4”.
